Measurements taken from patent US20140249135A1, “PIM KINASE INHIBITORS AND METHODS OF THEIR USE” (NOVARTIS AG, priority 2007, published 2014).
“And” between values parts separate entries of the source, which are not always exact repeats. Equal values may be shown once.

Experiments:
Pim2 kinase = Pim2 kinase (Homo sapiens, UniProt Q9P1W9); assay: Pim2 ATP depletion assay; format: biochemical; conditions: read-out: IC50 (μM) PIM2;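 also: Luciferase-based luminescent readout of ATP remaining after PIM2 phosphorylates a BAD peptide, final 5 nM enzyme, 4 µM ATP, 10 µM peptide, 2.5% DMSO, run to roughly half ATP consumption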
PC3 cells = assay: Cell proliferation assay (CellTiter-Glo), PC3; format: cell-based; conditions: Homo sapiens, PC-3
Protocol: HEL 92.1.7 cells (ATTC No. TIB-180, an erythroleukemia line derived from malignant peripheral blood), MV4-11 cells (ATCC No. CRL-9591, a human acute monocytic leukemia line) and PC3 cells (ATCC No. CRL-1435, a human prostatic adenocarcinoma line) were cultured in RPMI1640 supplemented with 10% FBS, sodium pyruvate and antibiotics. Cells were plated in the same medium at a density of 1000 cells per well into 96 well tissue culture plates, with outside wells vacant, on the day of assay.
Test compounds supplied in DMSO were diluted into DMSO at 500 times the desired final concentrations before dilution into culture media to 2 times final concentrations. Equal volumes of 2× compounds were added to the cells in 96 well plates and incubated at 37° C. for 3 days.
After 3 days plates were equilibrated to room temperature and equal volume of CellTiter-Glow Reagent (Promega) was added to the culture wells. The plates were agitated briefly and luminescent signal was measured with luminometer. The percent inhibition of the signal seen in cells treated with DMSO alone vs. cells treated with control compound was calculated and used to determine EC50 values (i.e., the concentration of a test compound that is required to obtain 50% of the maximum effect in the cells) for tested compounds, as shown in Example 763.

[1] = target: T1, human full length PKCE enzyme (Homo sapiens, UniProt Q02156); assay: In vitro PKCE assay; format: biochemical; conditions: 10 nM enzyme, 40 uM peptide substrate, 20 uM ATP, KinaseGlo Plus readout; read-out: PKCε IC50
T1 construct: human full length PKCE enzyme purchased from InVitrogen; purchased InVitrogen
T1 sequence (Q02156 1-737): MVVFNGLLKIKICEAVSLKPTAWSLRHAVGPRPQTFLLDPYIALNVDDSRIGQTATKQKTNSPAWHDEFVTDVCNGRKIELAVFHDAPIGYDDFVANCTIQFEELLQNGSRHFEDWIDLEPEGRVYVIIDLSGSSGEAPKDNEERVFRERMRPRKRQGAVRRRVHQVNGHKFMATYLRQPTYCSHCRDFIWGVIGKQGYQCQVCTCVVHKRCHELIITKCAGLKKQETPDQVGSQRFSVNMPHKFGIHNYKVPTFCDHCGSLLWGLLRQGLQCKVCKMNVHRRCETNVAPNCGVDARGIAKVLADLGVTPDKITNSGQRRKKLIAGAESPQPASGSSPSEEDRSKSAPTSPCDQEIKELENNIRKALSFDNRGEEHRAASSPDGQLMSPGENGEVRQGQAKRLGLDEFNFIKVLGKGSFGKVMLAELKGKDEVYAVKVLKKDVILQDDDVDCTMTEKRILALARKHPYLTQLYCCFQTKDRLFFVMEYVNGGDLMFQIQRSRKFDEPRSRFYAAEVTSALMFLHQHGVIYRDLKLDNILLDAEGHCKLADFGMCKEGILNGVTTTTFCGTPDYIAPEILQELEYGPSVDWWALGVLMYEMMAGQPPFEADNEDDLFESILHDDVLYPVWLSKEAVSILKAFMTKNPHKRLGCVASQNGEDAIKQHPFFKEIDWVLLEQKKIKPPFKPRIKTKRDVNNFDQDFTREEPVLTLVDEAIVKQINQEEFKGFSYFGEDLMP

Pim1 kinase = Pim1 kinase (Homo sapiens, UniProt P11309); assay: Pim1 ATP depletion assay; format: biochemical; conditions: Pim1 ATP depletion assay; read-out: IC50 (μM) PIM1;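 also: Luciferase-luciferin luminescence readout of residual ATP after PIM1 transfers phosphate to a peptide substrate, 40 µM ATP added, reaction run to roughly half ATP consumption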
KDR kinase = KDR kinase (Homo sapiens, UniProt P35968); assay: KDR AlphaScreen assay; conditions: KDR IC50 (μM)
Pim3 kinase = Pim3 kinase (Homo sapiens, UniProt Q86V86); assay: Pim3 ATP depletion assay; format: biochemical; conditions: read-out: IC50 (μM) PIM3

Chain of Pim2 kinase (Q9P1W9 whole entry): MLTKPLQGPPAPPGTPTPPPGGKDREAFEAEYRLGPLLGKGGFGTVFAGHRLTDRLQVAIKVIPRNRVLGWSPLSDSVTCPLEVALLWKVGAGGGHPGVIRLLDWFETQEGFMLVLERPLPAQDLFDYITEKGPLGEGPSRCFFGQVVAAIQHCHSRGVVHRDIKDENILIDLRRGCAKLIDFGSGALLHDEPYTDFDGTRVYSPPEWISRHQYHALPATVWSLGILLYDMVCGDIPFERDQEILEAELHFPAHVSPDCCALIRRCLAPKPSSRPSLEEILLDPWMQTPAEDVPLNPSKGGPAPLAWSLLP
Chain of KDR kinase (P35968 20-1356): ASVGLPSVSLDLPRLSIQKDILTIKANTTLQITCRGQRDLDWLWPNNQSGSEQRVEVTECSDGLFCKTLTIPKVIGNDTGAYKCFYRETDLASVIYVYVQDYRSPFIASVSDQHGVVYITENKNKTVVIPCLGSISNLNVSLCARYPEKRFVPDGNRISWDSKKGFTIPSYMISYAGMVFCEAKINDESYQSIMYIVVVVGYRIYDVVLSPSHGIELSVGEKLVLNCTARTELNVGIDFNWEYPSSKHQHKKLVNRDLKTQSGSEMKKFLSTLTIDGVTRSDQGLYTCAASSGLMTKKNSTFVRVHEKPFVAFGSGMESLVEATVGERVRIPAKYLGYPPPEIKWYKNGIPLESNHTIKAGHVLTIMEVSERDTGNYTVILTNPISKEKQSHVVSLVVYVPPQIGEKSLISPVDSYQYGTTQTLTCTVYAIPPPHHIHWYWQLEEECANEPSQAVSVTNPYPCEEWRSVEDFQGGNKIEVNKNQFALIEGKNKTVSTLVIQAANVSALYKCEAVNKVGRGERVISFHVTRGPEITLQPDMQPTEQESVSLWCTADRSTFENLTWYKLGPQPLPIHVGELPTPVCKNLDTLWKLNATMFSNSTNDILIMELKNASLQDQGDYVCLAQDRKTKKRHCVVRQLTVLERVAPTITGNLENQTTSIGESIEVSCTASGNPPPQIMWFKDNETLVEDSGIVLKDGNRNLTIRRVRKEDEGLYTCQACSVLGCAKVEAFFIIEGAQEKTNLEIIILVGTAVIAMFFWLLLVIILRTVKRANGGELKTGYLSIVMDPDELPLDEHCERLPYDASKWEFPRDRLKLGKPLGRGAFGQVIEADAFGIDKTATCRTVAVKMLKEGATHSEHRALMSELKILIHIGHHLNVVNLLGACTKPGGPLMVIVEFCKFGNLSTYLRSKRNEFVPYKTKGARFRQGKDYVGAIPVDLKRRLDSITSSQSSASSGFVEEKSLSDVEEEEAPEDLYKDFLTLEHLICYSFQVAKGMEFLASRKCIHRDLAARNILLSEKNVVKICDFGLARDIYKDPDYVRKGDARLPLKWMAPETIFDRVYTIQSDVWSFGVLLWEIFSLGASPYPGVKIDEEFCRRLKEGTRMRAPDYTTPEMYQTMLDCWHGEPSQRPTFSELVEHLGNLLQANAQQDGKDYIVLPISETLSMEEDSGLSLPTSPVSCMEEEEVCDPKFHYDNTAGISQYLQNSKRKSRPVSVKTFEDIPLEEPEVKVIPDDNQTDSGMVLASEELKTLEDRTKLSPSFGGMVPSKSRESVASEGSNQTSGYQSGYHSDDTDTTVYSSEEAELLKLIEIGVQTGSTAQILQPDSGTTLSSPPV
Chain of Pim1 kinase (P11309 whole entry): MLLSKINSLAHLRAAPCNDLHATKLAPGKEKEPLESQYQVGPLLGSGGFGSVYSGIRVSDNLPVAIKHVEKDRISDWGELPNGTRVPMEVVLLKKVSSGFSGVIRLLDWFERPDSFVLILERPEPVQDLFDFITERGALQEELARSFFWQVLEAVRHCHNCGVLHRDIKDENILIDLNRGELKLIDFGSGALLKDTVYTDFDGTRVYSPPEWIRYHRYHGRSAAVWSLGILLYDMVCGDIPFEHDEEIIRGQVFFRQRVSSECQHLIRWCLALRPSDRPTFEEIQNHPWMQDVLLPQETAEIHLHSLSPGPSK

Row | SMILES | IC50 (Pim2 kinase) [µM] | EC50 (PC3 cells) [µM] | IC50 [1] | IC50 (Pim1 kinase) [µM] | IC50 (KDR kinase) | IC50 (Pim3 kinase) [µM]
1 | CN(C)C1CCN(c2ccncc2NC(=O)c2nccnc2N)CC1 [Example 126, 3-amino-N-{4-[4-(dimethyl-amino)piperidin-1-yl]pyridin-3-yl}pyrazine-2-carboxamide] | 1 to 10 | 5 to 10 | < 1000 nM | < 1 | 1 to 10 µM | < 1
2 | Nc1nccnc1C(=O)Nc1ccccc1N1CCCC(N)C1 (centres unmarked) [Example 195, 3-amino-N-[2-(3-aminopiperidin-1-yl)phenyl]pyrazine-2-carboxamide] | < 1 | > 10 | < 1000 nM | < 1 | > 25 µM | < 1
3 | Nc1nccnc1C(=O)Nc1ccccc1N1CCC[C@H](N)C1 [Example 201, 3-amino-N-{2-[(3S)-3-amino-piperidin-1-yl]phenyl}pyrazine-2-carboxamide] | < 1 | 5 to 10 | < 1000 nM | < 1 | 10 to 25 µM | < 1
4 | Nc1nccnc1C(=O)Nc1ccccc1N1CCNCC1 [Example 202, 3-amino-N-(2-piperazin-1-ylphenyl)pyrazine-2-carbox-amide] | > 25 | 1 to 5 | < 1000 nM | 1 to 10 | > 25 µM | 1 to 10
5 | Nc1nccnc1C(=O)Nc1ccccc1N1CCC(N)CC1 [Example 203, 3-amino-N-[2-(4-aminopiperidin-1-yl)phenyl]pyrazine-2-carboxamide] | 1 to 10 | < 1 | < 1000 nM | < 1 | > 25 µM | < 1
6 | Nc1ncc(Br)nc1C(=O)Nc1ccccc1N1CCC(N)CC1 [Example 205, 3-amino-N-[2-(4-aminopiperidin-1-yl)phenyl]-6-bromopyrazine-2-carboxamide] | < 1 | < 1 | < 1000 nM | < 1 | 1 to 10 µM | < 1
7 | Nc1nccnc1C(=O)Nc1cc(Cl)ccc1N1CCC(N)CC1 [Example 214, 3-amino-N-[2-(4-aminopiperidin-1-yl)-5-chlorophenyl]pyrazine-2-carboxamide] | 1 to 10 | 1 to 5 | < 1000 nM | < 1 | 10 to 25 µM | < 1
8 | Cc1ccc(N2CCC(N)CC2)c(NC(=O)c2nccnc2N)c1 [Example 217, 3-amino-N-[2-(4-aminopiperidin-1-yl)-5-methylphenyl]pyrazine-2-carboxamide] | > 25 | 5 to 10 | 10000 to 25000 nM and < 1000 nM | < 1 | > 25 µM and 10 to 25 µM | 1 to 10
9 | COc1ccc(N2CCC(N)CC2)c(NC(=O)c2nccnc2N)c1 [Example 222, 3-amino-N-[2-(4-aminopiperidin-1-yl)-5-methoxyphenyl]pyrazine-2-carboxamide] | 10 to 25 | > 10 | < 1000 nM | < 1 | > 25 µM | < 1
10 | Cc1ccc(NC(=O)c2nccnc2N)c(N2CCC(N)CC2)c1 [Example 228, 3-amino-N-[2-(4-aminopiperidin-1-yl)-4-methylphenyl]pyrazine-2-carboxamide] | 10 to 25 | 5 to 10 | < 1000 nM | < 1 | 10 to 25 µM | < 1
11 | Nc1ncc(-c2ccccc2)nc1C(=O)Nc1cnccc1N1CCNCC1 [Example 359, 3-amino-6-phenyl-pyrazine-2-carboxylic acid (4-piperazin-1-yl-pyridin-3-yl)-amide] | < 1 | < 1 | < 1000 nM | < 1 | < 1 µM | < 1

The remaining lines, values ahead:

Row | IC50 (Pim2 kinase) [µM] | EC50 (PC3 cells) [µM] | IC50 [1] | IC50 (Pim1 kinase) [µM] | IC50 (KDR kinase) | IC50 (Pim3 kinase) [µM] | SMILES
12 | < 1 | < 1 | < 1000 nM | < 1 | < 1 µM | < 1 | COc1ccc(-c2cnc(N)c(C(=O)Nc3cnccc3N3CCNCC3)n2)cc1 [Example 362, 3-amino-6-(4-methoxy-phenyl)-pyrazine-2-carboxylic acid (4-piperazin-1-yl-pyridin-3-yl)-amide]
13 | – | < 1 | < 1000 nM | < 1 | < 1 µM | < 1 | Nc1ncc(-c2ccccc2F)nc1C(=O)Nc1cnccc1N1CCNCC1 [Example 363, 3-amino-6-(2-fluoro-phenyl)-pyrazine-2-carboxylic acid (4-piperazin-1-yl-pyridin-3-yl)-amide]
14 | – | < 1 | < 1000 nM | < 1 | < 1 µM and 1 to 10 µM | < 1 | Nc1ncc(-c2ccccc2)nc1C(=O)Nc1cnccc1N1CCC(N)CC1 [Example 364, 3-amino-6-phenyl-pyrazine-2-carboxylic acid (4-amino-3,4,5,6-tetrahydro-2H-[1,4′]bi-pyridinyl-3′-yl)-amide]
15 | 1 to 10 | > 10 | < 1000 nM | < 1 | < 1 µM | < 1 | Nc1ncc(-c2ccccc2Oc2ccccc2)nc1C(=O)Nc1cnccc1N1CCC(N)CC1 [Example 365, 3-amino-6-(2-phenoxy-phenyl)-pyrazine-2-carboxylic acid (4-amino-3,4,5,6-tetra-hydro-2H-[1,4′]bipyridinyl-3′-yl)-amide]
16 | – | < 1 | < 1000 nM | < 1 | < 1 µM | < 1 | COc1ccc(-c2cnc(N)c(C(=O)Nc3cnccc3N3CCC(N)CC3)n2)cc1 [Example 367, 3-amino-6-(4-methoxy-phenyl)-pyrazine-2-carboxylic acid (4-amino-3,4,5,6-tetra-hydro-2H-[1,4′]bipyridinyl-3′-yl)-amide]
17 | – | < 1 | < 1000 nM | < 1 | < 1 µM | < 1 | Nc1ncc(-c2ccccc2F)nc1C(=O)Nc1cnccc1N1CCC(N)CC1 [Example 368, 3-amino-6-(2-fluoro-phenyl)-pyrazine-2-carboxylic acid (4-amino-3,4,5,6-tetrahydro-2H-[1,4′]bipyridinyl-3′-yl)-amide]
18 | < 1 | 5 to 10 | < 1000 nM | < 1 | < 1 µM | < 1 | COc1ccc(-c2cnc(N)c(C(=O)Nc3cnccc3N3CCCC(N)C3)n2)cc1 (centres unmarked) [Example 370, 3-amino-6-(4-methoxy-phenyl)-pyrazine-2-carboxylic acid (3-amino-3,4,5,6-tetra-hydro-2H-[1,4′]bipyridinyl-3′-yl)-amide]
19 | < 1 | 1 to 5 | < 1000 nM | < 1 | < 1 µM | < 1 | Nc1ncc(-c2ccccc2)nc1C(=O)Nc1ccccc1N1CCCC(N)C1 (centres unmarked) [Example 372, 3-amino-6-phenyl-pyrazine-2-carboxylic acid [2-(3-amino-piperidin-1-yl)-phenyl]-amide]
20 | < 1 | > 10 | < 1000 nM | < 1 | > 25 µM | < 1 | Cc1cnc(N)c(C(=O)Nc2ccccc2N2CCCC(N)C2)n1 (centres unmarked) [Example 376, 3-amino-6-methyl-pyrazine-2-carboxylic acid [2-(3-amino-piperidin-1-yl)-phenyl]-amide]
21 | 10 to 25 | 1 to 5 | < 1000 nM | < 1 | > 25 µM | 1 to 10 | Cc1cnc(N)c(C(=O)Nc2ccccc2N2CCC(N)CC2)n1 [Example 378, 3-amino-N-[2-(4-amino-piperidin-1-yl)phenyl]-6-methylpyrazine-2-carboxamide]
